From ChEMBL document CHEMBL2062407, “Synthesis of N²-modified 7-methylguanosine 5'-monophosphates as nematode translation inhibitors” (Bioorg Med Chem, 2012)
pIC50: −log10 of the molar value.

tested on: not listed separately; experiment: Inhibition of Ascaris suum eIF4E-3 assessed as inhibition of cap-dependent translation after 1 hr by cell-free Renilla luciferase reporter gene assay

SMILES	pIC50
CN(Cc1ccccc1)c1nc2c(c(=O)[nH]1)[n+](C)cn2[C@@H]1O[C@H](COP(=O)([O-])O)[C@@H](O)[C@H]1O	< 4.30
CCN(CC)c1nc2c(c(=O)[nH]1)[n+](C)cn2[C@@H]1O[C@H](COP(=O)([O-])O)[C@@H](O)[C@H]1O	< 4.30
CCN(C)c1nc2c(c(=O)[nH]1)[n+](C)cn2[C@@H]1O[C@H](COP(=O)([O-])O)[C@@H](O)[C@H]1O	4.86
C[n+]1cn([C@@H]2O[C@H](COP(=O)([O-])O)[C@@H](O)[C@H]2O)c2nc(NCc3ccc(Cl)cc3)[nH]c(=O)c21	5.42
C[n+]1cn([C@@H]2O[C@H](COP(=O)([O-])O)[C@@H](O)[C@H]2O)c2nc(N)[nH]c(=O)c21	< 4.30
C[n+]1cn([C@@H]2O[C@H](COP(=O)([O-])O)[C@@H](O)[C@H]2O)c2nc(NCc3ccc([N+](=O)[O-])cc3)[nH]c(=O)c21	4.90
C[n+]1cn([C@@H]2O[C@H](COP(=O)([O-])O)[C@@H](O)[C@H]2O)c2nc(NCc3ccccc3)[nH]c(=O)c21	5.54
C[n+]1cn([C@@H]2O[C@H](COP(=O)([O-])O)[C@@H](O)[C@H]2O)c2nc(NCc3ccc(-c4ccccc4)cc3)[nH]c(=O)c21	5.37
C[n+]1cn([C@@H]2O[C@H](COP(=O)([O-])O)[C@@H](O)[C@H]2O)c2nc(N(Cc3ccccc3)Cc3ccccc3)[nH]c(=O)c21	< 4.30

The remaining lines, values ahead:

pIC50	SMILES
< 4.30	CCCCN(C)c1nc2c(c(=O)[nH]1)[n+](C)cn2[C@@H]1O[C@H](COP(=O)([O-])O)[C@@H](O)[C@H]1O
5.24	C[n+]1cn([C@@H]2O[C@H](COP(=O)([O-])O)[C@@H](O)[C@H]2O)c2nc(NCC3CCCCC3)[nH]c(=O)c21
< 4.30	CC(C)CN(C)c1nc2c(c(=O)[nH]1)[n+](C)cn2[C@@H]1O[C@H](COP(=O)([O-])O)[C@@H](O)[C@H]1O
6.05	COc1ccc(CNc2nc3c(c(=O)[nH]2)[n+](C)cn3[C@@H]2O[C@H](COP(=O)([O-])O)[C@@H](O)[C@H]2O)cc1
5.21	C[n+]1cn([C@@H]2O[C@H](COP(=O)([O-])OP(=O)(O)OP(=O)(O)O)[C@@H](O)[C@H]2O)c2nc(N)[nH]c(=O)c21
5.41	CCCCNc1nc2c(c(=O)[nH]1)[n+](C)cn2[C@@H]1O[C@H](COP(=O)([O-])O)[C@@H](O)[C@H]1O
5.35	CC(C)CNc1nc2c(c(=O)[nH]1)[n+](C)cn2[C@@H]1O[C@H](COP(=O)([O-])O)[C@@H](O)[C@H]1O

tested on: Ascaris suum; experiment: Ratio of m7GTP IC50 to compound IC50 for Ascaris suum eIF4E-3 assessed as inhibition of cap-dependent translation after 1 hr by cell-free Renilla luciferase reporter gene assay

Ratio IC50	SMILES
7	COc1ccc(CNc2nc3c(c(=O)[nH]2)[n+](C)cn3[C@@H]2O[C@H](COP(=O)([O-])O)[C@@H](O)[C@H]2O)cc1
